One molecule from ChEMBL document CHEMBL6127121, “Development of N-(4-(1H-Imidazol-1-yl)phenyl)-4-chlorobenzenesulfonamide, a Novel Potent Inhibitor of β-Catenin with Enhanced Antitumor Activity and Metabolic Stability” (J Med Chem, 2024) can be followed below.

The subject of data set [1] is SW480. The experiment in a line: Inhibition of Wnt/beta-catenin signaling in human SW480 cells assessed as residual activity at IC50 concentration incubated for 12 hrs by Topflash/Fopflash Dual-Glo luciferase reporter assay. As to conditions: dose 30.0 µM. Type of data set: cell-based.
Data set [2] deals with SW480. Briefly: Inhibition of cell growth in human SW480 cells incubated for 48 to 72 hrs by XTT method. The class given is functional, cell-based. A general note: Tetrazolium assays rely on reduction of a dye to a coloured formazan, in cell work by metabolically active cells.
Data set [3] is described as follows: Metabolic stability in human liver microsomes assessed as half life preincubated for 10 mins followed by NADP, glucose-6-phosphate and glucose-6-phosphate dehydrogenase addition and measured upto 60 mins by LC-MS/MS analysis. The following applies: time < 70 min. The class given is ADME, Microsome. A general note: Liver microsomes are a subcellular fraction often used to study metabolism.

The subject of data set [4] is HCT-116. The experiment in a line: Downregulation of c-Myc protein level in human HCT-116 cells incubated for 24 hrs in presence of 50 mM LiCl by Western blotting analysis. The class given is functional, cell-based. The following applies: dose 10-100 µM.
Data set [5] relates to HCT-116. Briefly: Downregulation of beta-catenin protein level in human HCT-116 cells incubated for 24 hrs in presence of 50 mM LiCl by Western blotting analysis. Type of data set: functional, cell-based. The following applies: dose 10-100 µM.
Data set [6] has as its system HCT-116. The experiment in a line: Inhibition of cell growth in human HCT-116 cells incubated for 48 to 72 hrs by XTT method. The class given is functional, cell-based.
Data set [7] relates to HCT-116. Briefly: Antitumor activity against human HCT-116 cells xenografted in BALB/c nu/nu mouse assessed as reduction in tumor volume at 25 mg/kg, ip administered every 2 days for 30 day. Type of data set: functional, organism-based. A general note: Xenograft models place foreign cells or tissue in a host animal.
Data set [8] deals with HCT-116. The experiment in a line: Downregulation of Sall4 mRNA level in human HCT-116 cells at 10 uM incubated for 24 hrs by qPCR analysis. Type of data set: functional, cell-based.
Data set [9] concerns the target T1, Catenin beta-1 (Homo sapiens) (UniProt P35222).
T1 sequence (whole entry): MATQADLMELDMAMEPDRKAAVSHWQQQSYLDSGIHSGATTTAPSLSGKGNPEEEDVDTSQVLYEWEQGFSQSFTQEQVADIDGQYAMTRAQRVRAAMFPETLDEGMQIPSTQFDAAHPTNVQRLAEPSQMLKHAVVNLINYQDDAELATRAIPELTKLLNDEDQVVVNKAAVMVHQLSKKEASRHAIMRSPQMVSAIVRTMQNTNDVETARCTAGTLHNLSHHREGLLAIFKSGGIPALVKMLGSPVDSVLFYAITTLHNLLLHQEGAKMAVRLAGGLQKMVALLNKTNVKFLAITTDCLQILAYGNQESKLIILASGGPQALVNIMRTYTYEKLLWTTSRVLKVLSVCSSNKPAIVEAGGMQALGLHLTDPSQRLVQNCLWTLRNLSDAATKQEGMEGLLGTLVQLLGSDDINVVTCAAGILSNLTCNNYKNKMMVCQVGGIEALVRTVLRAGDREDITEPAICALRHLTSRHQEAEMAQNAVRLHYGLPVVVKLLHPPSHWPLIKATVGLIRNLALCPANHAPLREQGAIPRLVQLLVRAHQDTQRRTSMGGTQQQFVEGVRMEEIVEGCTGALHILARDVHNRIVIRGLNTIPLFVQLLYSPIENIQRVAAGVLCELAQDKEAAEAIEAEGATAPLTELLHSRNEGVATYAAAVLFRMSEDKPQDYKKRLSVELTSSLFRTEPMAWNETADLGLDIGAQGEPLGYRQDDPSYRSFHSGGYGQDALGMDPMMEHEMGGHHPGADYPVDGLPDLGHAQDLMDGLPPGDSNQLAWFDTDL
Briefly: Inhibition of beta-catenin in human HCT-116 cells transfected with luciferase based vectors at 1 to 10 nM incubated for 48 hrs in presence of LiCl. The class given is cell-based. As to conditions: dose 1-10 nM.

The nature of data set [10]: Downregulation of c-Myc mRNA level in human HCT-116 cells at 10 uM incubated for 24 hrs in presence of 50 mM LiCl by qPCR analysis. The class given is functional.
Data set [11] relates to HCT-116. The experiment in a line: Antitumor activity against human HCT-116 cells xenografted in BALB/c nu/nu mouse assessed as reduction in nuclear Ki67 expression at 25 mg/kg, ip administered every 2 days for 30 day by […] based assay. The class given is functional, organism-based.
The nature of data set [12]: Metabolic stability in human liver microsomes assessed as intrinsic clearance per mg protein preincubated for 10 mins followed by NADP, glucose-6-phosphate and glucose-6-phosphate dehydrogenase addition and measured upto 60 mins by LC-MS/MS analysis. As to conditions: time < 70 min, read-out: CLH. Type of data set: ADME, Microsome.
The test system of data set [13] is HCT-116. Briefly: Inhibition of Wnt/beta-catenin signaling in human HCT-116 cells assessed as residual activity at IC50 concentration incubated for 12 hrs by Topflash/Fopflash Dual-Glo luciferase reporter assay. The class given is cell-based. As to conditions: dose 30.0 µM.
Data set [14] deals with HCT-116. Briefly: Downregulation of c-Myc mRNA level in human HCT-116 cells incubated for 24 hrs in presence of 50 mM LiCl by qPCR analysis. As to conditions: dose 10-100 µM. The class given is functional, cell-based.
For data set [15], the target named is T1, Catenin beta-1 (Homo sapiens). Briefly: Inhibition of beta-catenin in human HCT-116 cells transfected with luciferase based vectors incubated for 24 hrs in presence of LiCl. The class given is cell-based. The following applies: dose 50-100 nM.
The subject of data set [16] is HCT-116. Briefly: Antitumor activity against human HCT-116 cells xenografted in BALB/c nu/nu mouse assessed as reduction in tumor weight at 25 mg/kg, ip administered every 2 days for 30 day. Type of data set: functional, organism-based.
Data set [17] relates to HCT-116. Briefly: Downregulation of Fgf20 mRNA level in human HCT-116 cells at 10 uM incubated for 24 hrs by qPCR analysis. Type of data set: functional, cell-based.
The nature of data set [18]: Metabolic stability in mouse liver microsomes assessed as intrinsic clearance per mg protein preincubated for 10 mins followed by NADP, glucose-6-phosphate and glucose-6-phosphate dehydrogenase addition and measured upto 60 mins by LC-MS/MS analysis. Type of data set: ADME, Microsome. As to conditions: time < 70 min, read-out: CLH.
Data set [19] can be described thus: Metabolic stability in mouse liver microsomes assessed as half life preincubated for 10 mins followed by NADP, glucose-6-phosphate and glucose-6-phosphate dehydrogenase addition and measured upto 60 mins by LC-MS/MS analysis. The class given is ADME, Microsome. The following applies: time < 70 min.

pEC50: −log10 of the molar value. Activity calls are given as the source filed them. The calls are words filed in the database; no cut-off is given here.

One may read the pEC50 as −log10 of the EC50, conventionally taken in molar units. A high value points to a small EC50. The half-life is how long it takes for the measured level to halve. Regarding `O=S(=O)(Nc1ccc(-n2ccnc2)cc1)c1ccc(Cl)cc1`, the Activity is 3.7% in the data set on SW480 [1]; “Dose-Dependent Effect” in the data set with HCT-116 [4]; “Dose-Dependent Effect” in the data set with HCT-116 [5]; 50% in data set [10]; 2.5% in the data set with HCT-116 [13]; “Dose-Dependent Effect” in the data set with HCT-116 [14]. Moreover, the values for the pEC50 with SW480 [2] and in the data set on HCT-116 [6] were 5.70 and 6.92, respectively. Further, the half-life in data set [3] and in data set [19] was greater than 8.33 h each time. Also, the outcome in the data set on HCT-116 [7], in the data set with HCT-116 [8], in the data set with HCT-116 [11], in the data set on HCT-116 [16] and in the data set on HCT-116 [17] was Active. Further, the inhibition entry in data set [9] is “Active”. In addition, the microsomal CLint in data set [12] and in data set [18] was less than 3 µL/min/mg throughout. Moreover, the inhibition result in data set [15] was “Dose-Dependent Effect”.
